Patent US20120270807A1, “MACROCYCLIC INHIBITORS OF SERINE PROTEASE ENZYMES” (priority 2009, published 2012)

molecular target: human matriptase (Homo sapiens, UniProt Q9Y5Y6); assay: Assay for inhibition of matriptase (fluorogenic substrate Boc-Gln-Ala-Arg-AMC); type: biochemical; conditions: residual matriptase activity in presence of test compound; hydrolysis of Boc-Gln-Ala-Arg-AMC; 10 μM for initial screening per method
Source text: The following describes an assay for matriptase as a representative serine protease and is based upon reported methods. (Désilets, A.; Longpré, J.-M.; Beaulieu, M.-E.; Leduc, R. FEBS Lett. 2006, 580, 2227-2232.) Similar assays are applicable and available for other serine proteases.
Enzyme activities were monitored by measuring the release of fluorescence from AMC-coupled peptides (excitation, 360 nm; emission, 441 nm) in a FLX-800 TBE microplate reader (Bio-Tek Instruments, Winooski, Vt., USA). The purified human matriptase was active site titrated with the burst titrant 4-methylumbelliferyl-p-guanidino benzoate (MUGB). Enzymatic assays with matriptase were performed in Tris-HCl 100 mM containing 500 µg/mL BSA at pH 9. Human soluble furin was expressed, purified, titrated and assayed as described in the literature (Denault, J. B.; Lazure, C.; Day, R; Leduc, R. Protein Expr. Purif. 2000, 19, 113-124.) The purified HAT protein was active-site titrated with MUGB. Assays with HAT were performed in 50 mM Tris-HCl at pH 8.6.
Enzymes were diluted to concentrations ranging from 4 to 12.5 nM for furin, from 2 to 7 nM for matriptase and 20 pM for HAT and incubated with either 10 μM (for initial screening) […] or appropriate dilutions (for kinetic analysis), for example 0, 500, 1000, 2000 nM or 0, 250, 500, 1000, 2500, 5000 nM, of the test compound for 15 min at RT. Residual enzyme activity was measured by following the hydrolysis of a fluorogenic substrate (4 μM Boc-Arg-Val-Arg-Arg-AMC for furin, Boc-Gln-Ala-Arg-AMC for matriptase and 4 μM Boc-Val-Pro-Arg-AMC for HAT) (Bachem Bioscience, King of Prussia, Pa., USA). Saturation curves were performed in the presence of increasing concentrations of test compounds. Data from three independent experiments or more were typically averaged and residual velocities were plotted as a function of test compound concentration. Data were fitted by non-linear regression analysis to Equation (1) (Bieth, J. G. Methods Enzymol. 1995, 248, 59-84.) using the Enzfitter software (Biosoft, Ferguson, Mo., USA).
vi/v0=1−{([E]0+[I]0+Ki(app))−(([E]0+[I]0+Ki(app))^2−4[E]0[I]0)^1/2}/2[E]0 Equation (1): […]
where v0 and vi are the steady-state rates of substrate hydrolysis in the absence and presence of inhibitor, respectively, [E]0, the initial concentration of enzyme, [I]0, the initial concentration of inhibitor and Ki(app) the substrate-dependent equilibrium dissociation constant. The substrate-independent constant Ki was calculated using Equation (2) (Bieth, J. G. Methods Enzymol. 1995, 248, 59-84.),
Ki=Ki(app)(1+[S]0/Km) Equation (2): […]
The table presents results for matriptase inhibition for representative compounds of the invention.
Ki's can be calculated from the velocity using nonlinear regression analysis. The model used is a competitive enzyme inhibition equation where KmObs=Km*(1+[I]/Ki) and Y=Vmax*X/(KmObs+X). X is the substrate concentration. Y the velocity.

Chain of human matriptase (Q9Y5Y6 615-855 limits assumed, other chains not shown): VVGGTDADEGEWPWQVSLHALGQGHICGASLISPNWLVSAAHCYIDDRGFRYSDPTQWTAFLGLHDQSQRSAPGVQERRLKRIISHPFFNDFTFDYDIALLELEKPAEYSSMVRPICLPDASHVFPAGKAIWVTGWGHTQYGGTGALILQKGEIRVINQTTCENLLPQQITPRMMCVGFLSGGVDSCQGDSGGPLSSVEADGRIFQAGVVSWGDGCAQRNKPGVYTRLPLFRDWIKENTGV

Row | SMILES | Velocity (FU/min)
1 | C[C@@H]1CN[C@@H](C2CC2)C(=O)N(C)[C@H](C)C(=O)N[C@H](Cc2ccc(C(N)=O)cc2)C(=O)NCCCc2ccccc2O1 [Compound 498] | 580
2 | C[C@@H]1C(=O)N[C@H](CCCN)C(=O)NCCCc2ccc(F)cc2OCCN[C@@H](C2CC2)C(=O)N1C [Compound 487] | 2500
3 | C[C@@H]1C(=O)N[C@H](Cc2c[nH]cn2)C(=O)NCCCc2ccc(F)cc2OCCN[C@@H](C2CC2)C(=O)N1C [Compound 493] | 2700
4 | C[C@@H]1C(=O)N[C@H](Cc2ccc(C(=N)N)cc2)C(=O)NC/C=C/c2cccc(c2)OCCN[C@@H](C2CC2)C(=O)N1C [Compound 482] | 2500
5 | C[C@@H]1C(=O)N[C@H](Cc2cscn2)C(=O)NCCCc2ccc(F)cc2OCCN[C@@H](C2CC2)C(=O)N1C [Compound 496] | 2700
6 | C[C@@H]1NCCOc2cc(F)ccc2CCCNC(=O)[C@@H](Cc2ccc(C(=N)N)cc2)NC(=O)[C@@H](C)N(C)C1=O [Compound 467] | 2300
7 | C[C@@H]1C(=O)N[C@H](Cc2ccncc2)C(=O)NCCCc2ccc(F)cc2OCCN[C@@H](C2CC2)C(=O)N1C [Compound 495] | 2700
8 | C[C@@H]1CN[C@@H](C2CC2)C(=O)N(C)[C@H](C)C(=O)N[C@H](Cc2ccc(C(=N)N)cc2)C(=O)NCCCc2ccccc2O1 [Compound 459] | 140
